As usually defined, the logD is lipophilicity at a set pH, counting ionised and neutral species. Read a high logD as a more lipophilic compound. As usually defined, the clearance is the volume of plasma or blood freed of the substance per unit of time. A lower clearance goes with inefficient removal. The inhibition is how much of the control response was suppressed. As usually defined, the ED50 is the dose at which the effect has come halfway, by size or by number of responders. A low value points to an effect at a small dose.

These results are taken from ChEMBL document CHEMBL1833918, “Design and synthesis of potent, orally-active DGAT-1 inhibitors containing a dioxino[2,3-d]pyrimidine core” (Bioorg Med Chem Lett, 2011).

Series [1] is described as follows: Lipophilicity, log D of the compound at pH 7.4. The format is physicochemical. The settings on record: buffer.
Series [2] deals with Rattus norvegicus. Description: Toxicity in rat assessed as histopathological signs up to 500 mg/kg. The format is organism-based. Also on record: dose 500 mg/kg. The settings on record: in vivo.
Series [3] can be described thus: Clearance in rat. In kind it is ADME, organism-based. The settings on record: in vivo.
Series [4] is described as follows: Permeability of the compound. The format is ADME. The conditions noted are these: not told; read-out: permeability.
In series [5] the test system is Rattus norvegicus. Description: Toxicity in rat assessed as hematological signs up to 500 mg/kg. In kind it is organism-based. Also on record: dose 500 mg/kg. The settings on record: in vivo.
The subject of series [6] is Salmonella typhimurium. Description: Genotoxicity in Salmonella Typhimurium by Ames test. The format is toxicity, organism-based. The settings on record: salmonella enterica subsp. enterica serovar typhimurium.
In series [7] the target is hERG (KCNH2) (Homo sapiens, UniProt Q12809). Description: Inhibition of human ERG at 30 uM.
Series [8] deals with Liver microsomes. The series can be described thus: Stability of the compound in human liver microsomes at 10 uM after 30 mins in presence of glutathione ethyl ester. In kind it is ADME, Microsome. The conditions noted are these: 0.5 h. Background: Liver microsomes are a subcellular fraction often used to study metabolism.
The species entered for series [9] is Mus musculus. The conditions noted are these: C57BL6J, 1 to 3 mg/kg.
Description: Inhibition of triglyceride synthesis in a lipid challenged C57BL6J mouse at 1 to 3 mg/kg, po coadministered with bolus of lipid
Series [10] relates to Rattus norvegicus. The series can be described thus: Toxicity in rat assessed as clinical signs up to 500 mg/kg. In kind it is organism-based. Also on record: dose 500 mg/kg. The conditions noted are these: in vivo.
The test system of series [11] is Mus musculus. The series can be described thus: Inhibition of triglyceride synthesis in a lipid challenged C57BL6J mouse administered orally. In kind it is functional. The settings on record: po.

The structures appear in SMILES notation. Calls of active or inactive are those of the source. No cut-off for these calls is given here.

Sequence of hERG (KCNH2) (Q12809 whole entry): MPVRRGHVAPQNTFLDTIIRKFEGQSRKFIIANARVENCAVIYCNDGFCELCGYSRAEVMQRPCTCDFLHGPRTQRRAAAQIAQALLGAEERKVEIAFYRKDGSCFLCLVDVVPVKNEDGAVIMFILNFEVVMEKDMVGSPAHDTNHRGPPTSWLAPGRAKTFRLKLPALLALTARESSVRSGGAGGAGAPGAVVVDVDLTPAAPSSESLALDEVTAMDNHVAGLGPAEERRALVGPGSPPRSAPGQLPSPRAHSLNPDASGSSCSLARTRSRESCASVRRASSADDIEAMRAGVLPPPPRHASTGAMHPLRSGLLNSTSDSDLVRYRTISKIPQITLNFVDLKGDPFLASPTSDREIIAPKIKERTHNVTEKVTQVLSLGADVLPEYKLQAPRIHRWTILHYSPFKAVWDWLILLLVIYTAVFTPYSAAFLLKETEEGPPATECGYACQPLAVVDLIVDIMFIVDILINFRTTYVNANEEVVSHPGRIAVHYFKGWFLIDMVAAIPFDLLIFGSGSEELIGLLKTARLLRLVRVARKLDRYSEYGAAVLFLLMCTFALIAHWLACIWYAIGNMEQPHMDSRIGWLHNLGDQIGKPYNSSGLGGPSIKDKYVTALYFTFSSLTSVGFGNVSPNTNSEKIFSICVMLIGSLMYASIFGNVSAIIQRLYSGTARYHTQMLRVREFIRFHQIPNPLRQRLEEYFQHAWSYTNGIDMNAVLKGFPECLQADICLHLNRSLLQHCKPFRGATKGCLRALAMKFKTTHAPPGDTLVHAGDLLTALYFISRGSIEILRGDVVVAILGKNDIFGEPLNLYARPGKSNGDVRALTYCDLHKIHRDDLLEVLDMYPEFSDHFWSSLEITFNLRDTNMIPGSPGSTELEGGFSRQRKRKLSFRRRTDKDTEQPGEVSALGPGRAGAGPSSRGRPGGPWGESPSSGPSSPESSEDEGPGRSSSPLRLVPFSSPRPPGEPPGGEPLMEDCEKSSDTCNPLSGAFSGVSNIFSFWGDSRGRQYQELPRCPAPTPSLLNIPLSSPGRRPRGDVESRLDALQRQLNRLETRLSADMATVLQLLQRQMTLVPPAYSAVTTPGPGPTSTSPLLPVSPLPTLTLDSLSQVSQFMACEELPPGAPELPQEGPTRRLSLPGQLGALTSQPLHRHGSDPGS

On to `Nc1ncnc2c1O[C@@H](c1ccc([C@H]3CC[C@H](CC(=O)O)CC3)cc1)CO2`, for which, in series [1], the pH-dependent lipophilicity (logD) came to 0.74. The Activity result in series [2], in series [5], in [6] and in series [10] was “Non-toxic” each time. The clearance in series [3] was determined as 2 mL/min/kg. In addition, the Papp in series [4] came to 7.7 ×10⁻⁶ cm/s. In series [7], the inhibition at 30 µM is 8%. In series [8], the Stability result is reported as “Unstable”. In series [9], the inhibition result is “Active”.
On to `Nc1ncnc2c1C(=O)N(c1ccc([C@H]3CC[C@H](CC(=O)O)CC3)cc1)CCO2` [PF-04620110], for which, in series [1], the pH-dependent lipophilicity (logD) was -0.15.
For the compound `CC1(C)Oc2ncnc(N)c2N=C1c1ccc([C@H]2CC[C@H](CC(=O)O)CC2)cc1`, it took a dose of 0.3 mg/kg to reach the 50% effect level in [11] (ED50).
